1 compound from patent US7378079B2, “Agents for imaging and diagnostic methods using them” (NST Neurosurvival Technologies Ltd., priority 2002, dated 2008) can be followed below.

The test system of this test is B16 melanoma. Nature of the test: Imaging of tumor cell death in B16 melanoma in vivo, fluorescent microscopy. The note with it: BiCNU 35 mg/Kg; compound i.v. 1-3 mg/animal after 24 h; tumors removed 2 h later. More on the design: species or system c57/black mice. The method, then:
Mice bearing B16-melanoma were treated with chemotherapy (BiCNU 35 mg/Kg, one dose), and then injected intravenously with NST920B. Animals were sacrificed two hours later, and the tumor was removed and subjected to fluorescent histopathological assessment, to identify binding of NST920B. Shown is fluorescent microscopic image of a section of the tumor.
Melanoma tumors were induced in c57/black mice by subcutaneous injection of B16-F10 cell line (ATCC CRL-6475). The cell line was maintained in culture in Dulbecco's modified Eagle's medium (DMEM), supplemented with 4 mM of L-glutamine; 100 units/ml of penicillin; 100 μg/ml of streptomycin; 12.5 units/ml of nystatin and 10% of fetal calf serum (FCS). For tumor induction, 10^5 cells in a volume of 100 μl were injected […] to 8 week-old male mice. 15 days later, when tumor diameter reached 5-6 mm, the mice were treated with chemotherapy (BiCNU, 1,3-bis(2-chloroethyl)-1-nitrosourea, at a single dose of 35 mg/Kg). Twenty-four hours after chemotherapy, the mice were injected intravenously with the compounds of the invention NST920B, NST930 and Re-NST904 (1-3 mg/animal). Two hours later, tumors were removed, frozen in liquid nitrogen, and subjected to cryosection. Evaluation of fluorescent signal was performed using fluorescent microscope.

Entries after “also recorded” stand apart in the source; their conditions may differ.

For the compound `CN(C)c1cccc2c(S(=O)(=O)N(CCOCCN(CC(=O)O)S(=O)(=O)c3cccc4c(N(C)C)cccc34)CC(=O)O)cccc12` [NST920B], the “uptake by viable, non-apoptotic tumor cells, B16 melanoma” value was “did not manifest such uptake” and the “uptake into apoptotic tumor cells, B16 melanoma” value was “Uptake of NST920B into apoptotic cells is demonstrated; also recorded: selective uptake”.
